The species named for series [1] is Mus musculus. Briefly: Anticonvulsant activity in electric shock-induced Carworth farms No.1 albino mouse assessed as time of peak effect. It counts as functional.
The subject of series [2] is Mus musculus. The experiment in a line: Neurotoxicity in Carworth farms No.1 albino mouse assessed as neurological impairment at 100 mg/kg, ip measured after 0.25 hrs. Conditions: in vivo. Type of series: toxicity, organism-based. Details: dose 100 mg/kg, route intraperitoneal.
For series [3], the system named is Mus musculus. Briefly: Neurotoxicity in Carworth farms No.1 albino mouse assessed as neurological impairment at 30 mg/kg, ip measured after 0.5 hrs. Details: dose 30 mg/kg, route intraperitoneal. It counts as toxicity, organism-based. The conditions noted are these: in vivo.
Series [4] relates to Mus musculus. Briefly: Neurotoxicity in Carworth farms No.1 albino mouse assessed as neurological impairment at 100 mg/kg, ip measured after 1 hr. It counts as toxicity, organism-based. Further details: dose 100 mg/kg, route intraperitoneal. Conditions: in vivo.
Series [5] concerns Mus musculus. The experiment in a line: Anticonvulsant activity in ip dosed Carworth farms No.1 albino mouse assessed as protection against 6 Hz electric current-induced seizure measured after 0.25 hrs. It counts as functional.
In series [6] the test system is Mus musculus. Briefly: Neurotoxicity in Carworth farms No.1 albino mouse assessed as neurological impairment at 300 mg/kg, ip measured after 4 hrs. It counts as toxicity, organism-based. Details: dose 300 mg/kg, route intraperitoneal. Conditions: in vivo.
The test system of series [7] is Mus musculus. The experiment in a line: Neurotoxicity in Carworth farms No.1 albino mouse assessed as neurological impairment at 100 mg/kg, ip measured after 2 hr. Type of series: toxicity, organism-based. Conditions: in vivo. Details: dose 100 mg/kg, route intraperitoneal.
Series [8] has as its system Mus musculus. Briefly: Neurotoxicity in Carworth farms No.1 albino mouse assessed as neurological impairment at 300 mg/kg, ip measured after 0.5 hrs. It counts as toxicity, organism-based. Further details: dose 300 mg/kg, route intraperitoneal. The conditions noted are these: in vivo.
In series [9] the test system is Mus musculus. Briefly: Neurotoxicity in Carworth farms No.1 albino mouse assessed as neurological impairment at 100 mg/kg, ip measured after 0.5 hrs. Type of series: toxicity, organism-based. Conditions: in vivo. Details: dose 100 mg/kg, route intraperitoneal.
Series [10] has as its system Mus musculus. The experiment in a line: Neurotoxicity in Carworth farms No.1 albino mouse assessed as neurological impairment at 30 mg/kg, ip measured after 4 hrs. Type of series: toxicity, organism-based. Details: dose 30 mg/kg, route intraperitoneal. The conditions noted are these: in vivo.
Series [11] deals with Mus musculus. The experiment in a line: Neurotoxicity in Carworth farms No.1 albino mouse assessed as neurological impairment at 100 mg/kg, ip measured after 4 hrs. The conditions noted are these: in vivo. Further details: dose 100 mg/kg, route intraperitoneal. It counts as toxicity, organism-based.
The test system of series [12] is Mus musculus. Briefly: Anticonvulsant activity in Carworth farms No.1 albino mouse assessed as protection against 6 Hz electric current-induced seizure at 100 mg/kg, ip measured after 0.25 hrs. It counts as functional, organism-based. Further details: dose 100 mg/kg.
Series [13] concerns Mus musculus. Briefly: Anticonvulsant activity in Carworth farms No.1 albino mouse assessed as protection against subcutaneous metrazole-induced seizures at 100 mg/kg, ip measured after 0.5 hrs. It counts as functional, organism-based. Details: dose 100 mg/kg.
Series [14] deals with Mus musculus. Briefly: Anticonvulsant activity in Carworth farms No.1 albino mouse assessed as protection against 6 Hz electric current-induced seizure at 100 mg/kg, ip measured after 4 hrs. It counts as functional, organism-based. Details: dose 100 mg/kg.
Series [15] deals with Mus musculus. Briefly: Anticonvulsant activity in Carworth farms No.1 albino mouse assessed as protection against 6 Hz electric current-induced seizure at 100 mg/kg, ip measured after 0.5 hrs. Type of series: functional, organism-based. Details: dose 100 mg/kg.
In series [16] the test system is Mus musculus. Briefly: Anticonvulsant activity in Carworth farms No.1 albino mouse assessed as protection against subcutaneous metrazole-induced seizures at 100 mg/kg, ip measured after 4 hrs. Further details: dose 100 mg/kg. Type of series: functional, organism-based.
In series [17] the test system is Mus musculus. The experiment in a line: Anticonvulsant activity in Carworth farms No.1 albino mouse assessed as protection against maximum electroshock at 30 mg/kg, ip measured after 4 hrs. Details: dose 30 mg/kg. Type of series: functional, organism-based.
For series [18], the system named is Mus musculus. The experiment in a line: Anticonvulsant activity in Carworth farms No.1 albino mouse assessed as protection against subcutaneous metrazole-induced seizures at 300 mg/kg, ip measured after 4 hrs. It counts as functional, organism-based. Details: dose 300 mg/kg.
The test system of series [19] is Mus musculus. Briefly: Anticonvulsant activity in Carworth farms No.1 albino mouse assessed as protection against maximum electroshock at 100 mg/kg, ip measured after 0.5 hrs. It counts as functional, organism-based. Further details: dose 100 mg/kg.
Series [20] relates to Mus musculus. The experiment in a line: Anticonvulsant activity in Carworth farms No.1 albino mouse assessed as protection against 6 Hz electric current-induced seizure at 100 mg/kg, ip measured after 2 hrs. Type of series: functional, organism-based. Further details: dose 100 mg/kg.
Series [21] has as its system Mus musculus. The experiment in a line: Anticonvulsant activity in Carworth farms No.1 albino mouse assessed as protection against maximum electroshock at 300 mg/kg, ip measured after 0.5 hrs. Type of series: functional, organism-based. Details: dose 300 mg/kg.
The subject of series [22] is Mus musculus. The experiment in a line: Anticonvulsant activity in Carworth farms No.1 albino mouse assessed as protection against maximum electroshock at 300 mg/kg, ip measured after 4 hrs. Type of series: functional, organism-based. Details: dose 300 mg/kg.
Series [23] concerns Mus musculus. Briefly: Anticonvulsant activity in Carworth farms No.1 albino mouse assessed as protection against subcutaneous metrazole-induced seizures at 30 mg/kg, ip measured after 0.5 hrs. It counts as functional, organism-based. Details: dose 30 mg/kg.
Series [24] has as its system Mus musculus. The experiment in a line: Anticonvulsant activity in Carworth farms No.1 albino mouse assessed as protection against 6 Hz electric current-induced seizure at 100 mg/kg, ip measured after 1 hrs. Type of series: functional, organism-based. Further details: dose 100 mg/kg.
Series [25] has as its system Mus musculus. The experiment in a line: Anticonvulsant activity in Carworth farms No.1 albino mouse assessed as protection against maximum electroshock at 30 mg/kg, ip measured after 0.5 hrs. It counts as functional, organism-based. Further details: dose 30 mg/kg.
Series [26] concerns Mus musculus. Briefly: Anticonvulsant activity in Carworth farms No.1 albino mouse assessed as protection against subcutaneous metrazole-induced seizures at 30 mg/kg, ip measured after 4 hrs. Type of series: functional, organism-based. Details: dose 30 mg/kg.
Series [27] relates to Mus musculus. The experiment in a line: Anticonvulsant activity in Carworth farms No.1 albino mouse assessed as protection against maximum electroshock at 100 mg/kg, ip measured after 4 hrs. Type of series: functional, organism-based. Further details: dose 100 mg/kg.
Series [28] relates to Mus musculus. The experiment in a line: Anticonvulsant activity in Carworth farms No.1 albino mouse assessed as protection against subcutaneous metrazole-induced seizures at 300 mg/kg, ip measured after 0.5 hrs. It counts as functional, organism-based. Further details: dose 300 mg/kg.

The source made the active and inactive calls. No cut-off for these calls is given here.

Consider `CC[C@@H](C(N)=O)N1CCCC1=O` [LEVETIRACETAM], for which the Time in the series filed under Mus musculus [1] is 1 h.
The ED50 is the dose at which the effect has come halfway, by size or by number of responders. `Cl.O=C1[C@H]2CCCCN2[C@H](c2ccccc2)C(=O)N1CCc1ccccc1`: the Activity result with Mus musculus [2], with Mus musculus [3], in the series with Mus musculus [4], in the series with Mus musculus [6], in the series with Mus musculus [7] and with Mus musculus [8] was “Non-toxic” each time. For the same molecule, the Activity result with Mus musculus [9], in the series on Mus musculus [10] and in the series on Mus musculus [11] was “Non-toxic” in each case. For the same molecule, the ED50 with Mus musculus [5] stood at 78.5 mg/kg. Besides, in the series filed under Mus musculus [1], the Time came to 0.25 h.
Regarding `O=C1CN2CCCC[C@H]2C(=O)N1`, the Activity result in the series with Mus musculus [2], in the series on Mus musculus [3], with Mus musculus [4], in the series with Mus musculus [6], in the series on Mus musculus [7] and in the series with Mus musculus [8] was “Non-toxic” throughout. For the same molecule, the Activity entry in the series on Mus musculus [9], with Mus musculus [10] and with Mus musculus [11] was “Non-toxic” throughout. The outcome with Mus musculus [12] and in the series with Mus musculus [24] was Active. Besides, the result in the series on Mus musculus [13], in the series on Mus musculus [14], in the series on Mus musculus [15], in the series with Mus musculus [16], with Mus musculus [17] and in the series on Mus musculus [18] was inactive. The result with Mus musculus [19], with Mus musculus [20], with Mus musculus [21], in the series on Mus musculus [22], in the series with Mus musculus [23] and in the series on Mus musculus [25] was inactive. Also, the result in the series on Mus musculus [26], with Mus musculus [27] and in the series with Mus musculus [28] was inactive.
As for `O=C1NC(=O)[C@@H](c2ccccc2)N2CCCC[C@@H]12`, the Activity entry in the series with Mus musculus [2], in the series on Mus musculus [3], in the series with Mus musculus [4], with Mus musculus [6], in the series on Mus musculus [7] and with Mus musculus [8] was “Non-toxic” in each case. Further, the Activity result in the series on Mus musculus [9], in the series with Mus musculus [10] and in the series on Mus musculus [11] was “Non-toxic” each time. Moreover, the result with Mus musculus [12], in the series with Mus musculus [13], in the series on Mus musculus [14], in the series on Mus musculus [15], with Mus musculus [16] and with Mus musculus [17] was inactive. Also, the outcome in the series with Mus musculus [18], with Mus musculus [19], in the series on Mus musculus [20], in the series on Mus musculus [21], in the series with Mus musculus [22] and with Mus musculus [23] was inactive. The outcome with Mus musculus [24], with Mus musculus [25], in the series on Mus musculus [26], in the series on Mus musculus [27] and with Mus musculus [28] was inactive.
